Assay results published in article PMC10178127, “Immunomodulatory Effects of the Pea Defensin Psd1 in the Caco-2/Immune Cells Co-Culture upon Candida albicans Infection” (International Journal of Molecular Sciences, 2023).

System: monocyte-derived dendritic cells (moDCs)
Test: Multiplex xMAP cytokine production, direct stimulation of moDCs
Format: cell-based, human
Conditions: 24 h
Description: Primary peripheral blood mononuclear cells (PBMCs) collected from healthy donors were purchased from American Type Culture Collection (ATCC PCS-800-011). Primary CD14^+ blood monocytes were isolated from PBMCs by adherence according to standard technique. Monocyte-derived mature dendritic cells (moDCs) were obtained from CD14^+ blood monocytes according to the previously reported protocol. Briefly, blood monocytes were incubated in a complete RPMI-1640 medium (Capricorn Scientific, Ebsdorfergrund, Germany), containing 10% fetal bovine serum (FBS, Capricorn Scientific, Ebsdorfergrund, Germany), 1× antibiotic-antimycotic solution (Invitrogen, Waltham, MA, USA), 800 U/mL rhGM-CSF (Sci-Store, Moscow, Russia) and 500 U/mL rhIL-4 (Sci-Store) for 3 days in CellXpert C170i CO2-incubator (Eppendorf, Hamburg, Germany). Fresh complete RPMI-1640 medium with rhGM-CSF and rhIL-4 was added to the culture on day 3. On day 5, fresh complete RPMI-1640 containing 100 U/mL rhTNF-α (Sigma-Aldrich, St. Louis, MO, USA) as well as 800 U/mL rhGM-CSF and 500 U/mL rhIL-4 was added and the culture was incubated for another 4 days until full maturation.
Monocytes and moDCs were seeded into the wells of 48- and 24-well plates in the complete RPMI-1640 medium supplemented with 10% human AB serum (HABS, Capricorn Scientific) without antibiotics 24 h prior to the experiment, and kept in a humidified CO2-incubator (5% CO2, 37 °C). After 24 h, the medium in the wells of the 48-well plate was replaced by fresh complete RPMI-1640 medium with 10% HABS, supplemented with 2 µM of Psd1 for the sample wells or fresh medium alone for the control wells. Medium in the wells of the 24-well plate was replaced by fresh complete RPMI-1640 medium with 10% human serum without antibiotics. Then, Millicell inserts with Caco-2 monolayers with TEER > 400 Ωcm^2 were placed into the wells of the 24-well plate, containing monocytes or moDCs. Wells with Millicell inserts with Caco-2 monolayers without immune cells were used as control wells. Medium in apical chambers of Millicell inserts was replaced by fresh complete RPMI-1640 with 10% human serum medium containing Psd1 at the final concentration of 2 µM or Candida albicans at the concentration of 5 × 10^4 cells/mL or yeast cells together with the pea defensin at the same concentration. Fresh complete RPMI-1640 medium only with 10% human serum and without antibiotics was used in control wells. Plates were kept in CO2-incubator (5% CO2, 37 °C) for another 24 h. Culture supernatants from the wells of the 48-well plate and basolateral chambers of the 24-well plate were collected and stored at −70 °C degrees less than one month prior to the analytes assessment.
The following 48 analytes were measured at a protein level by multiplex xMAP technology using the MILLIPLEX Human Cytokine/Chemokine/Growth Factor Panel A kit (HCYTA-60K-PX48, Merck, Darmstadt, Germany): sCD40L, EGF, Eotaxin-1/CCL11, FGF-2/FGF-basic, Flt-3 ligand, Fractalkine/CX3CL1, G-CSF, GM-CSF, GROα/CXCL1, IFNα2, IFNγ, IL-1α, IL-1β, IL-1RA, IL-2, IL-3, IL-4, IL-5, IL-6, IL-7, IL-8/CXCL8, IL-9, IL-10, IL-12(p40), IL-12(p70), IL-13, IL-15, IL-17A/CTLA8, IL-17E/IL-25, IL-17F, IL-18, IL-22, IL-27, IP-10/CXCL10, MCP-1/CCL2, MCP-3/CCL7, M-CSF, MDC/CCL22, MIG/CXCL9, MIP-1α/CCL3, MIP-1β/CCL4, PDGF-AA, PDGF-AB/BB, RANTES/CCL5, TGFα, TNFα, TNFβ, and VEGF-A. Multiplex-based assay read-out was performed using the MAGPIX system (Merck) with the xPONENT 4.2 software (Merck) in accordance with the manufacturer’s instruction with overnight incubation of the samples with primary antibodies. A final analysis was carried out with the MILLIPLEX Analyst v5.1 software (Merck). Measurements were performed twice for each sample. Release of the analytes in control and experimental samples was compared with an unpaired two-sample t-test using GraphPad Prism v.8.0.1 (GraphPad Software, Inc., San Diego, CA, USA). The p values ≤ 0.05 were considered significant.

Substance: Psd1: pea defensin from Pisum sativum (UNIPROT P81929), recombinant peptide overexpressed in Escherichia coli (KTCEHLADTYRGVCFTNASCDDHCKNKAHLISGTCHNWKCFCTQNC; UniProt P81929 1-46, looked up)
- EGF level (moDCs+Psd1, 2 µM, supernatant): 6.22 pg/mL
- Eotaxin level (moDCs+Psd1, 2 µM, supernatant): <3.52↓ pg/ml
- FGF-2 level (moDCs+Psd1, 2 µM, supernatant): 55.36 pg/mL
- FLT-3L level (moDCs+Psd1, 2 µM, supernatant): 1.05 pg/mL
- Fractalkine level (moDCs+Psd1, 2 µM, supernatant): <17.82↓ pg/ml
- G-CSF level (moDCs+Psd1, 2 µM, supernatant): 49.49 pg/mL
- GM-CSF level (moDCs+Psd1, 2 µM, supernatant): 11.89 pg/mL
- GROa level (moDCs+Psd1, 2 µM, supernatant): <0.61↓ pg/ml
- IFNa2 level (moDCs+Psd1, 2 µM, supernatant): 12.78 pg/mL
- IFNg level (moDCs+Psd1, 2 µM, supernatant): 7.25 pg/mL
- IL-1RA level (moDCs+Psd1, 2 µM, supernatant): 53.29 pg/mL
- IL-1a level (moDCs+Psd1, 2 µM, supernatant): 12.23 pg/mL
- IL-1b level (moDCs+Psd1, 2 µM, supernatant): <2.26↓ pg/ml
- IL-2 level (moDCs+Psd1, 2 µM, supernatant): 1.82 pg/mL
- IL-3 level (moDCs+Psd1, 2 µM, supernatant): 1.61 pg/mL
- IL-4 level (moDCs+Psd1, 2 µM, supernatant): <1.14↓ pg/ml
- IL-5 level (moDCs+Psd1, 2 µM, supernatant): 4.15 pg/mL
- IL-6 level (moDCs+Psd1, 2 µM, supernatant): 14.4 pg/mL
- IL-7 level (moDCs+Psd1, 2 µM, supernatant): <0.38↓ pg/ml
- IL-8 level (moDCs+Psd1, 2 µM, supernatant): 345.9 pg/mL
- IL-9 level (moDCs+Psd1, 2 µM, supernatant): 3.67 pg/mL
- IL-10 level (moDCs+Psd1, 2 µM, supernatant): 33.74 pg/mL
- IL-12 (p40) level (moDCs+Psd1, 2 µM, supernatant): 98.57 pg/mL
- IL-12 (p70) level (moDCs+Psd1, 2 µM, supernatant): <1.68↓ pg/ml
- IL-13 level (moDCs+Psd1, 2 µM, supernatant): 19.51 pg/mL
- IL-15 level (moDCs+Psd1, 2 µM, supernatant): 12.91 pg/mL
- IL-17A level (moDCs+Psd1, 2 µM, supernatant): 3.9 pg/mL
- IL-17E/IL-25 level (moDCs+Psd1, 2 µM, supernatant): <18.85↓ pg/ml
- IL-17F level (moDCs+Psd1, 2 µM, supernatant): <19.03↓ pg/ml
- IL-18 level (moDCs+Psd1, 2 µM, supernatant): 2.59 pg/mL
- IL-22 level (moDCs+Psd1, 2 µM, supernatant): 12.46 pg/mL
- IL-27 level (moDCs+Psd1, 2 µM, supernatant): 135.68 pg/mL
- IP-10 level (moDCs+Psd1, 2 µM, supernatant): 8892 pg/mL
- M-GSF level (moDCs+Psd1, 2 µM, supernatant): 218.78 pg/mL
- MCP-1 level (moDCs+Psd1, 2 µM, supernatant): 1760 pg/mL
- MCP-3 level (moDCs+Psd1, 2 µM, supernatant): 49.77 pg/mL
- MDC level (moDCs+Psd1, 2 µM, supernatant): 3016 pg/mL
- MIG level (moDCs+Psd1, 2 µM, supernatant): 30050 pg/mL
- MIP-1a level (moDCs+Psd1, 2 µM, supernatant): 185.33 pg/mL
- MIP-1b level (moDCs+Psd1, 2 µM, supernatant): 554.97 pg/mL
- PDGF-AA level (moDCs+Psd1, 2 µM, supernatant): 89.5 pg/mL
- PDGF-AB/BB level (moDCs+Psd1, 2 µM, supernatant): 139.81 pg/mL
- RANTES level (moDCs+Psd1, 2 µM, supernatant): 65.35 pg/mL
- TGF-a level (moDCs+Psd1, 2 µM, supernatant): 113.74 pg/mL
- TNFa level (moDCs+Psd1, 2 µM, supernatant): 55.68 pg/mL
- TNFb level (moDCs+Psd1, 2 µM, supernatant): 2.29 pg/mL
- VEGFa level (moDCs+Psd1, 2 µM, supernatant): <1.40↓ pg/ml
- sCD40L level (moDCs+Psd1, 2 µM, supernatant): 133.96 pg/mL
- increase in IL-12, IL-15, IL-27 and MCP-1 (moDCs, 2 μM): statistically significant
- production of TNFα, IL-6, IL-8, IP-10, MCP-3, and G-CSF (moDCs, 2 μM): increased
